Legend:
[1] = tested on: THP-1 cell adhesion to IL-1-activated HUVEC; assay: THP-1 cell adhesion to activated HUVEC; assay type: cell-based, human; conditions: IL-1 (10 ng/ml), 8 hours
Experimental: This example illustrates inhibitive activity of compounds nos. 50 and 57 on THP-1 cell adhesion to IL-1-activated HUVEC. In an investigative assay, HUVEC were stimulated with IL-1 (10 ng/ml), both in the absence and presence of varying concentrations of drugs for 8 hours in a 96-well microtiter plate. In the wellplate, human monocytic leukemia cell line THP-1 cells were added at 50,000 cells per well. The THP-1 cells were pre-incubated with BCECF, a fluorescence dye that can be used to measure cell number using a fluorescence plate reader. After 10 minutes at 37 °C, the microtiter plate was inverted and spun at 900 rpm. The remaining adhering THP-1 cells were then analyzed.
Inventive compound no. […] HUVEC were stimulated with 20 ng/ml IL-1β or 15 ng/ml TNFα for 6 hours. Fluorescence labeled (BCECF-AM) THP-1 cells were allowed to adhere to the HUVEC for 20 minutes, washed once and the amount of fluorescence remaining analyzed on a fluorescence plate reader. The results, reported in figures 62A and 62B (TNFα or IL-1β, respectively), show inhibition of THP-1 adhesion to HUVEC.
Figures 72A and 72B illustrate that inventive compound no. 58 inhibited THP-1 cell adhesion to either TNF or IL-1-stimulated HUVEC, respectively. Procedurally, HUVEC were stimulated with TNF or IL-1 for 8 hours and THP-1 cells added for 20 minutes. The HUVEC were then washed and analyzed for adherence. Inventive compound no. 58 inhibited adhesion of THP-1 cells to HUVEC with an IC50 of approximately 1 µM for both TNF and IL-1.

[2] = tested on: CMV promoter activity; assay: microbe, parasite or virus in culture; assay type: cell-based; conditions: transformed (adenovirus) cells
Excerpt: This example illustrates data of proliferative activity of various inventive compounds for inducing CMV promoter activity. The CMV promoter assay measures gene transcription and translation activity wherein any active compounds will have cytotoxic activity for inhibiting cellular protein synthesis in transformed (adenovirus) cells. Compound no. […]

[3] = tested on: mast cell degranulation; assay: Serotonin release assay for inhibition of mast cell degranulation; assay type: cell-based
Excerpt: This assay provides an in vitro model for an allergy and asthma therapeutic product. […]

[4] = tested on: proliferative PMBC response to allogeneic stimulation; assay: Two-way mixed lymphocyte reaction; assay type: cell-based
Excerpt: This example illustrates therapeutic potential for various autoimmune and inflammatory diseases of the inventive compounds by comparing potency (inhibitive activity) with cytotoxicity data obtained using the following indicative assay procedures. In a mixed lymphocyte reaction assay of compounds nos. […] Compounds nos. […] 2A and 2B. Both compounds nos. […] 2C.
Compound no. […] Compound no.

[5] = tested on: mixed lymphocyte reaction assay culture; assay: Cell percent viability in mixed lymphocyte reaction culture; assay type: cell-based; conditions: 100 µM, six days of cell culture
Experimental: Cell percent viability in mixed lymphocyte reaction assay culture was determined after six days of cell culture. […] Control cells unexposed to drugs are generally 78 to 85% viable under these culture conditions. In this assay, all inventive compounds were present at 100 µM concentrations, generally well above corresponding IC50 values in this assay (see fig. 2D). […] Compounds nos.

[6] = tested on: murine thymocyte proliferation; assay: Thymocyte proliferation co-stimulated by ConA and IL-2 (tritiated thymidine); assay type: cell-based, Balb/C mice
Experimental: (§1) ConA, used to activate CD3, induces T-cell proliferation and differentiation. Thymuses, obtained from normal, female Balb/C mice, were dissociated and plated into 96-well plates at a density of 2 x 10^5 cells/well. ConA (0.25 mg/ml) and IL-2 (15 U/ml) were added to the wells. The cells were incubated for 4 days at 37°C. On day 4, the cells were pulsed with tritiated thymidine and incubated for an additional 4 hours. The amount of tritiated thymidine dye incorporated by the harvested cells was determined in a liquid scintillation counter. Drug doses (shown in figs. 1A and 1B) were added two hours prior to ConA and IL-2 activation.
as §1, with “Thymuses,” for “ConA, used to activate CD3, induces T-cell proliferation and differentiation. Thymuses,”, “37 °C.” for “37°C.”, “Doses” for “Drug doses”, “26A, 26B” for “1A”, “26C)” for “1B)”
In another in vitro protocol, thymocyte proliferation was induced by sub-mitogenic doses of Con A (0.25 µg/ml) and IL-2 (20 ng/ml). Cells were stimulated for 96 hours, prior to addition of ^3H-TdR for 4 hours. The cells were harvested and incorporation of ^3H-TdR was determined.
45 on co-stimulated thymocyte proliferation. In an assay procedure, murine thymocytes were stimulated with ConA and IL-2 with 1 µM compound no. 45 added either 1 hour prior to IL-2 (-1), simultaneous with IL-2 (0) or at various times following IL-2 addition (1-92 hour). At 92 hours the thymocytes were pulsed with ^3H-TdR, harvested and counted by scintillation 4 hours later.

[7] = tested on: murine thymocyte proliferation; assay: Thymocyte proliferation stimulated by Con A and IL-1α; assay type: cell-based; conditions: Mus musculus, 2 h, added two hours prior to Con A and IL-1α
Experimental: In a first part of this example, compounds nos. 30, 33, 28 and 27 (see above for chemical names and structures) show effective inhibition of murine thymocyte proliferation stimulated by Con A and interleukin 1 alpha (IL-1α). Compounds nos. 30, 33, 28 and 27 were added to cell cultures two hours prior to activation with Con A and IL-1α in a thymocyte co-stimulation procedure akin to that discussed in example 21. […] IC50 values determined for each inventive compound tested are as follow: compound no. […] Background counts in the assay were less than 200 cpm.

[8] = tested on: murine splenocyte proliferation; assay: Splenocyte (B cell) proliferation stimulated by anti-mu/anti-IgM and IL-4; assay type: cell-based; conditions: Mus musculus, anti-mu and IL-4 12.5 ng/ml
Experimental: This example illustrates inhibitive effects of compounds nos. 27 and 28 on murine splenocyte proliferation stimulated by anti-mu ([…]) and interleukin-4 (IL-4, 12.5 ng/ml). This in vitro assay, described above, is indicative of immune-suppressive/autoimmune treatment assay emphasizing humoral or B cell immune response. The inventive compound was added to the cells at the doses indicated two hours prior to activation with anti-mu and IL-4. Both compounds nos. 27 and 28 inhibited splenocyte proliferation in a dose-response manner. IC50 values for compounds nos. Background counts were less than 200 cpm.
In figure 57, results shown illustrate that inventive compound no. 45 inhibits B cell proliferation. Murine splenocytes were stimulated with anti-IgM antibodies (10 µg/ml) and murine IL-4 (12.5 ng/ml). Cells were pulsed with ^3HTdR at 44 hours, harvested 4 hours later, and the incorporation of ^3H-TdR was determined by liquid scintillation.

[9] = tested on: Human stromal cells; assay: Stromal cell proliferation in response to PDGF-BB; assay type: cell-based; conditions: 50 ng/ml PDGF-BB
Experimental: This assay is useful for predicting therapeutic activity for preventing or treating restenosis, atherosclerosis and coronary artery disease. Human stromal cells were starved in serum-free media for one day and then stimulated with 50 ng/ml PDGF-BB. Inventive compounds, at various concentrations, were added one hour prior to PDGF stimulation. PDGF and tritiated thymidine were added and the cells allowed to incubate for one day, following addition of the PDGF and thymidine. 24 Hours later, the cells were harvested and counted by liquid scintillation counting. Results for compounds nos. Background counts (i.e., starved cells) were approximately 1% of control levels. […] 30, 28, 29, 32 and 31, respectively.

[10] = tested on: PDGF/IL-1 co-stimulation, proliferation; assay: PDGF/IL-1 co-stimulation proliferation assay; assay type: cell-based; conditions: fig. 14
Excerpt: The PDGF/IL-1 assay is useful in measuring in vitro activity, indicative of therapeutic potential for treating or preventing restenosis and reperfusion. Figure 14 reports IC50 bar graph results for a group of inventive compounds nos. 27, 28, 32, 30, 31, 32 and 34. In this predictive, in vitro model, compounds nos.

[11] = tested on: Saccharomyces cervisiae; assay: Yeast growth assay (anti-yeast and anti-fungal activity); assay type: cell-based; conditions: 100 µM
Experimental: This example illustrates the effects of a reference compound "X", and inventive compounds nos. 29, 30, 31, 32 and 33 (see above for names and structures) on yeast growth (Saccharomyces cervisiae)--using 100 µM concentrations--as compared with yeast activity in the absence of any compound additive (control). This assay measured anti-yeast and anti-fungal activity of the inventive compounds tested.

[12] = tested on: mouse thymocytes; assay: Con A priming followed by IL-2 restimulation of thymocytes; assay type: cell-based
Experimental: In a proliferation assay, mouse thymocytes were pre-incubated overnight with Con A (a "priming step"), washed, and restimulated with IL-2 in […] of inventive compounds. On day 4, the cells were pulsed with tritiated thymidine and allowed to incubate for an additional 4 hours. The cells were harvested and the amount of tritiated thymidine incorporated by the harvested cells was determined in a liquid scintillation counter. […] 3.
On day 4, the cells were pulsed with tritiated thymidine and allowed to incubate for an additional 4 hours. The cells were harvested and the amount of incorporated tritiated thymidine was determined in a liquid scintillation counter.

[13] = tested on: murine cytotoxic T-cell line, CT6; assay: Cytokine-induced proliferation of the cytotoxic T-cell line CT6 / CT-6.1; assay type: cell-based; conditions: murine IL-2 (15 U/ml), figs. 21C and 21D
Experimental: Another assay in this example was used to determine inhibitive activity of the inventive compounds on direct IL-2-induced proliferation in a murine cytotoxic T-cell line, CT6. The CT6 cell line is an IL-2-dependent cell line. IL-2 was removed from the medium for 24 hours prior to stimulation. […] 49, 50, 45, 43 or 41 were added at various concentrations. The cells were stimulated with IL-2 and amount of tritiated thymidine dye incorporated was measured 48 hours later.
In another related assay, inhibitory effects on CT6 cell proliferation is examined. CT6 cells are a murine IL-2 dependent, cytotoxic T cell line that proliferate in response to murine IL-2 (15 U/ml).
CT-6.1 cells were starved overnight and stimulated with IL-2 (20 ng/ml). Twenty hours later, cells were labeled for 4 hours with ^3H-TdR and counted by liquid scintillation.
CT6.1 cells were cultured with IL-2 with or without the addition of inventive compound no. 45 (2 µM) and viable cells counted for up to 8 days. On day 4, two cultures previously incubated with compound no. 45, were washed and recultured with fresh IL-2 with or without compound no. 45 (2 µM).
Procedurally, CT-6.1 cells were starved overnight and stimulated with either IL-2 (20 ng/ml), IL-4 (50 ng/ml) or IL-7 (25 ng/ml). ^3H-TdR was added at 20 hours, cells were harvested 4 hours later, and the incorporation of ^3H-TdR was determined.

Q: With `Cn1cnc2c1c(=O)n(CCCCCCCCCC(O)CNCc1ccc(N)cc1)c(=O)n2C` (stereo not drawn) [compound 57, 1-[11-(4-Aminobenzylamino)-10-hydroxyundecyl]-3,7-dimethylxanthine] as the compound, how does the “inhibition of THP-1 adhesion” value [1] read?
A: significantly inhibited THP-1 adhesion, even at low concentratations

Q: What does the source list for `Cn1cnc2c1c(=O)n(CCCCC(O)CNCc1ccccc1)c(=O)n2C` (stereo not drawn) [compound no. 13, 1-(5-hydroxy-6-(N-benzyl)aminohexyl)-3,7-dimethylxanthine]?
A: IC50 [2]: > 500 µM; inhibition at 100 µM ([3]; Mast cell, Concentration 100 µM): 28%; IC50 ([4]; Lymphocyte, figs. 2A-2C): 55 µM; cytotoxicity (percent viability) [5]: little or no cytotoxicity

Q: What does the source list for `CCCCCCCCNCC(O)CCCCn1c(=O)c2c(ncn2C)n(C)c1=O` (stereo not drawn) [compound no. 28, 1-(5-hydroxy-6-(N-octyl)aminohexyl)-3,7-dimethylxanthine]?
A: IC50 [2]: 50 µM; inhibition of thymocyte proliferation ([6]; ConA and IL-2 co-stimulation): the most potent immune-suppressive effects; immune suppression activity ([4]; fig. 2D): the most potent compound of those assayed; cytotoxicity (percent viability) [5]: the most cytotoxic at 100 µM; IC50 [7]: 4.6 µM; IC50 [8]: 5.2 µM; IC50 [9]: 3.2 µM; inhibitive activity [10]: potent inhibitive activity

Q: Which IC50 [2] does the source give for `CCCCCCN(CCCCCC)CC(O)CCCCn1c(=O)c2c(ncn2C)n(C)c1=O` (stereo not drawn) [compound no. 33, 1-(5-hydroxy-6-(N,N-dihexyl)aminohexyl)-3,7-dimethylxanthine] here?
A: 100 µM

Q: And the IC50 [7]?
A: 8.6 µM

Q: What about the yeast-growth inhibitive activity [11] of the same compound?
A: showed yeast-growth inhibitive activity

Q: Which “% Inhibition” value ([3]; Concentration 50 µM) does the source give for `CCCCCCCCNCC(O)CCCCCCCn1c(=O)c2c(ncn2C)n(C)c1=O` (stereo not drawn) [compound no. 35, 1-(8-hydroxy-9-(N-octyl)aminononyl)-3,7-dimethylxanthine] here?
A: too toxic

Q: What about the “IC50 values (range in words)” value ([6]; figs. 21A and 21B) of the same compound?
A: low micromolar

Q: What about the “inhibition of thymocyte proliferation, compound added with IL-2” value ([12]; Con A pre-treated cells, 1µM) of the same compound?
A: dramatically inhibited thymocyte proliferation

Q: What about the “proliferation in response to IL-2 after compound present during Con A priming” value ([12]; compound during overnight Con A incubation, IL-2 without compound) of the same compound?
A: normal thymocyte proliferation in response to IL-2 stimulation

Q: And the “inhibition of IL-2-induced proliferation” value [13]?
A: exhibited no activity in this assay

Source: EP0719267B1, “SECOND MESSENGER CELL SIGNALING INHIBITORS” (CELL THERAPEUTICS, INC., priority 1993, dated 1994)
